Experimental data: patent US7115741B2, “4-thieno[2,3-D]pyrimidin-4-YL piperazine compounds” (priority 2001, dated 2006)

The compounds below were run on platelet ADP receptors (assay: ARB binding assay (platelet ADP receptor binding, [3H]2-MeS-ADP)). Conditions: relative activities of selected compounds in the ARB binding assay.
Design: species or system human
Protocol: Utilizing the second assay the potency of inhibition of such compounds with respect to [^3H]2-MeS-ADP binding to whole platelets is determined. [^3H]2-MeS-ADP binding experiments are routinely performed with outdated human platelets collected by standard procedures at hospital blood banks. Apyrase-washed outdated platelets are prepared as follows (all steps at room temperature, if not indicated otherwise):
Outdated platelet suspensions are diluted with 1 volume of CGS and platelets pelleted by centrifugation at 1900×g for 45 minutes. Platelet pellets are resuspended at 3–6×10^9 platelets/ml in CGS containing 1 U/ml apyrase (grade V, Sigma, St. Louis, Mo.) and incubated for 15 minutes at 37° C. After centrifugation at 730×g for 20 minutes, pellets are resuspended in Hepes-Tyrode's buffer containing 0.1% BSA (Sigma, St. Louis, Mo.) at a concentration of 6.66×10^8 platelets/ml. Binding experiments are performed after >45 minutes resting of the platelets.
Alternatively, binding experiments are performed with fresh human platelets prepared as described in I.(Inhibition of ADP-Mediated Platelet Aggregation in vitro), except that platelets are resuspended in Hepes-Tyrode's buffer containing 0.1% BSA (Sigma, St. Louis, Mo.) at a concentration of 6.66×10^8 platelets/ml. Very similar results are obtained with fresh and outdated platelets.
A platelet ADP receptor binding assay using the tritiated potent agonist ligand [^3H]2-MeS-ADP (Jantzen, H. M. et al. (1999) Thromb. Hemost. 81:111–117) has been adapted to the 96-well microtiter format. In an assay volume of 0.2 ml Hepes-Tyrode's buffer with 0.1% BSA and 0.6% DMSO, 1×10^8 apyrase-washed platelets are preincubated in 96-well flat bottom microtiter plates for 5 minutes with serial dilutions of test compounds before addition of 1 nM [^3H]2-MeS-ADP ([^3H]2-methylthioadenosine-5′-diphosphate, ammonium salt; specific activity 48–49 Ci/mmole, obtained by custom synthesis from Amersham Life Science, Inc., Arlington Heights, Ill., or NEN Life Science Products, Boston, Mass.). Total binding is determined in the absence of test compounds. Samples for nonspecific binding may contain 10^−5 M unlabelled 2-MeS-ADP (RBI, Natick, Mass.). After incubation for 15 minutes at room temperature, unbound radioligand is separated by rapid filtration and two washes with cold (4–8° C.) Binding Wash Buffer (10 mM Hepes pH 7.4, 138 mM NaCl) using a 96-well cell harvester (Minidisc 96, Skatron Instruments, Sterling, Va.) and 8×12 GF/C glassfiber filtermats (Printed Filtermat A, for 1450 Microbeta, Wallac Inc., Gaithersburg, Md.). The platelet-bound radioactivity on the filtermats is determined in a scintillation counter (Microbeta 1450, Wallac Inc., Gaithersburg, Md.). Specific binding is determined by subtraction of non-specific binding from total binding, and specific binding in the presence of test compounds is expressed as % of specific binding in the absence of test compounds dilutions.

SMILES | Relative Activity
CCc1cc2c(N3CCN(C(=O)c4snnc4-c4ccccc4)CC3)ncnc2s1 [Example 348, [4-(6-Ethyl-thieno[2,3-d]pyrimidin-4-yl)-piperazin-1-yl]-(4-phenyl-[1,2,3]-thiadiazol-5-yl)-methanone] | + (>20 micromolar)
CCc1cc2c(N3CCN(C(=O)CCCCC4CCCCC4)CC3)ncnc2s1 [Example 311, 5-Cyclohexyl-1-[4-(6-ethyl-thieno[2,3-d]pyrimidin-4-yl)-piperazin-1-yl]-pentan-1-one] | + (>20 micromolar)
CCc1cc2c(N3CCN(C(=O)[C@H](C)c4ccccc4)CC3)ncnc2s1 [Example 349, 1-[4-(6-Ethyl-thieno[2,3-d]pyrimidin-4-yl)-piperazin-1-yl]-2-phenyl-propan-1-one] | + (>20 micromolar)
CCc1cc2c(N3CCN(C(=O)Cc4ccccc4)CC3c3ccccc3)ncnc2s1 (stereo not drawn) [Example 206, 1-[4-(6-ethylthiopheno[3,2-e]pyrimidin-4-yl)-3-phenylpiperazinyl]-2-phenylethan-1-one] | + (>20 micromolar)
CCc1cc2c(N3CCN(C(=O)CCCC(=O)O)CC3)ncnc2s1 [Example 390, 5-[4-(6-Ethyl-thieno[2,3-d]pyrimidin-4-yl)-piperazin-1-yl]-5-oxo-pentanoic acid] | + (>20 micromolar)
CCc1cc2c(N3CCN(C(=O)/C=C/c4ccsc4)CC3)ncnc2s1 [Example 320, 1-[4-(6-Ethyl-thieno[2,3-d]pyrimidin-4-yl)-piperazin-1-yl]-3-thiophen-3-yl-propenone] | + (>20 micromolar)
CCc1cc2c(N3CCN(C(=O)Cc4ccccc4)CC3)nc(O)nc2s1 [Example 183, 1-[4-(6-ethyl-2-hydroxythiopheno[3,2-e]pyrimidin-4-yl)piperazinyl]-2-phenylethan-1-one] | + (>20 micromolar)
CCc1cc2c(N3CCN(C(=O)C(c4ccccc4)c4ccccc4)CC3)ncnc2s1 [Example 70, 1-[4-(6-ethylthiopheno[3,2-e]pyrimidin-4-yl)piperazinyl]-2,2-diphenylethan-1-one] | + (>20 micromolar)
CC(C)(C)c1cc2c(N3CCN(C(=O)Cc4ccccc4)CC3)ncnc2s1 [Example 106, 1-{4-[6-(tert-butyl)thiopheno[3,2-e]pyrimidin-4-yl]piperazinyl}-2-phenylethan-1-one] | ++ (10–20 micromolar)
CCc1cc2c(N3CCN(C(=O)CCCCC#N)CC3)ncnc2s1 [Example 395, 6-[4-(6-Ethyl-thieno[2,3-d]pyrimidin-4-yl)-piperazin-1-yl]-6-oxo-hexanenitrile] | + (>20 micromolar)
CCc1cc2c(N3CCN(C(=O)CN4CCCC(n5nnc6ccccc65)C4)CC3)ncnc2s1 (stereo not drawn) [Example 271, 2-(3-Benzotriazol-1-yl-piperidin-1-yl)-1-[4-(6-ethyl-thieno[2,3-d]pyrimidin-4-yl)-piperazin-1-yl]-ethanone] | ++ (10–20 micromolar)
CCc1cc2c(N3CCN(C(=O)CC(F)(F)F)CC3)ncnc2s1 [Example 5, 1-[4-(6-ethylthiopheno[3,2-e]pyrimidin-4-yl)piperazinyl]-3,3,3-trifluoropropan-1-one] | +++ (<10 micromolar)
CCOC(=O)c1nc(N2CCN(C(=O)Cc3ccccc3)CC2)c2cc(CC)sc2n1 [Example 236, 6-Ethyl-4-(4-phenylacetyl-piperazin-1-yl)-thieno[2,3-d]pyrimidine-2-carboxylic acid ethyl ester] | +++ (<10 micromolar)
O=C(Cc1ccccc1)N1CCN(c2ncnc3sc(Br)cc23)CC1 [Example 125, 1-[4-(6-bromothiopheno[3,2-e]pyrimidin-4-yl)piperazinyl]-2-phenylethan-1-one] | +++ (<10 micromolar)
CCc1cc2c(N3CCCN(C(=O)CCCOn4nnc5ccccc54)CC3)ncnc2s1 [Example 188, 4-benzotriazolyloxy-1-[4-(6-ethylthiopheno[3,2-e]pyrimidin-4-yl)(1,4-diazaperhydroepinyl)]butan-1-one] | +++ (<10 micromolar)
CCc1cc2c(N3CCN(C(=O)Cc4ccccc4)C(C)C3)ncnc2s1 (stereo not drawn) [Example 197, 1-[4-(6-ethylthiopheno[3,2-e]pyrimidin-4-yl)-2-methylpiperazinyl]-2-phenylethan-1-one] | ++ (10–20 micromolar)
O=C(CC(F)(F)F)N1CCN(c2ncnc3sc(-c4ccccc4)cc23)CC1 [Example 111, 3,3,3-trifluoro-1-[4-(6-phenylthiopheno[3,2-e]pyrimidin-4-yl)piperazinyl]propan-1-one] | ++ (10–20 micromolar)
CCc1cc2c(N3CCN(C(=O)CCC(=O)OC)CC3)ncnc2s1 [Example 384, 4-[4-(6-Ethyl-thieno[2,3-d]pyrimidin-4-yl)-piperazin-1-yl]-4-oxo-butyric acid methyl ester] | + (>20 micromolar)
C#Cc1cc2c(N3CCN(C(=O)CC(F)(F)F)CC3)ncnc2s1 [Example 135, 1-[4-(6-ethlylylthiopheno[3,2-e]pyrimidin-4-yl)piperazinyl]-3,3,3-trifluoropropan-1-one] | +++ (<10 micromolar)
CCc1cc2c(N3CCN(C(=O)Cc4ccccc4)CC3)ncnc2s1 [Example 2, 1-[4-(6-ethylthiopheno[3,2-e]pyrimidin-4-yl)piperazinyl]-2-phenylethan-1-one] | +++ (<10 micromolar)
CCc1cc2c(N3CCN(C(=O)CCCSc4nccn4-c4ccccc4)CC3)ncnc2s1 [Example 429, 1-[4-(6-Ethyl-thieno[2,3-d]pyrimidin-4-yl)-piperazin-1-yl]-4-(1-phenyl-1H-imidazol-2-ylsulfanyl)-butan-1-one] | + (>20 micromolar)
CCc1cc2c(N3CCN(C(=O)C(c4ccccc4)N4CCNCC4)CC3)ncnc2s1 (stereo not drawn) [Example 432, 1-[4-(6-Ethyl-thieno[2,3-d]pyrimidin-4-yl)-piperazin-1-yl]-2-phenyl-2-piperazin-1-yl-ethanone] | + (>20 micromolar)
CCc1cc2c(N3CCN(C(=O)Cc4ccccc4)CC3)nc(SC)nc2s1 [Example 169, 1-[4-(6-ethyl-2-methylthiothiopheno[3,2-e]pyrimidin-4-yl)piperazinyl]-2-phenylethan-1-one] | +++ (<10 micromolar)
CCc1cc2c(N3CCN(C(=O)C#Cc4ccccc4)CC3)ncnc2s1 [Example 332, 1-[4-(6-Ethyl-thieno[2,3-d]pyrimidin-4-yl)-piperazin-1-yl]-3-phenyl-propynone] | ++ (10–20 micromolar)
CCc1cc2c(N3CCN(C(=O)Cc4ccccc4)CC3)nc(C)nc2s1 [Example 153, 1-[4-(6-ethyl-2-methylthiopheno[3,2-e]pyrimidin-4-yl)piperazinyl]-2-phenylethan-1-one] | +++ (<10 micromolar)
CCc1cc2c(N3CCN(C(=O)c4ccc(-c5ccccc5)cc4)CC3)ncnc2s1 [Example 71, 4-(6-ethylthiopheno[3,2-e]pyrimidin-4-yl)piperazinyl 4-phenylphenyl ketone] | +++ (<10 micromolar)
CCc1cc2c(N3CCN(C(=O)C(F)(F)F)CC3)ncnc2s1 [Example 55, 1-[4-(6-ethylthiopheno[3,2-e]pyrimidin-4-yl)piperazinyl]-2,2,2-trifluoroethan-1-one] | +++ (<10 micromolar)
CCc1cc2c(N3CCN(C(=O)c4cccc(COn5nnc6ccccc65)c4)CC3)ncnc2s1 [Example 250, [3-(Benzotriazol-1-yloxymethyl)-phenyl]-[4-(6-ethyl-thieno[2,3-d]pyrimidin-4-yl)-piperazin-1-yl]-methanone] | ++ (10–20 micromolar)
CCc1cc2c(N3CCN(C(=O)Cc4ccccc4)CC3C)ncnc2s1 (stereo not drawn) [Example 193, 1-[4-(6-ethylthiopheno[3,2-e]pyrimidin-4-yl)-3-methylpiperazinyl]-2-phenylethan-1-one] | +++ (<10 micromolar)
CCc1cc2c(N3CCN(C(=O)c4ccc(-c5ccccc5)s4)CC3)ncnc2s1 [Example 408, [4-(6-Ethyl-thieno[2,3-d]pyrimidin-4-yl)-piperazin-1-yl]-(5-phenyl-thiophen-2-yl)-methanone] | ++ (10–20 micromolar)
